Assay results as given in patent US20050032827A1, “Sigma ligands for neuronal regeneration and functional recovery” (priority 2003, published 2005).

Tests used:
[1] = test system: SHR (spontaneous hypertensive) rats, stroke by MCA occlusion; assay: Rotating pole test after MCA occlusion; type: in vivo, rat; conditions: 0.03-10 mg/kg s.c. or p.o. from two days after MCAO for 2-8 weeks; saline control
From the text: (§1) Male 3 months old SHR (spontaneous hypertensive) rats are used for induction of stroke by MCA occlusion. This is the preferred strain since most stroke patients are hypertensive. The animals are anesthetized with Methohexital and a small craniectomy is made above the zygmotic arch to expose the middle cerebral artery, which is occluded with a 10-0 monofilament nylon thread distal to the origin of the striatal branches. The rats are not intubated and no catheters are inserted. Following MCA occlusion a large and reproducible infarct is obtained, leading to a robust sensorimotor deficit. The animals are kept on a 6 hr light/18 h dark cycle with free access to food and water. At two days after the MCAO the rats are treated with the compound I, II, III, IV, V, VI, VII, VIII, or IX (0.03-10 mg/kg) s.c. or p.o. and a control group is given saline for 2-8 weeks. At 2, 4, 6 and 8 weeks animals are tested in the rotating pole or cylinder test
A score of 6-0 is given for each direction: • 6, the animal crosses the pole with no foot slips; • 5, the animal crosses the pole with a few foot slips; • 4, the animal crosses the pole, slipping 50% of the footsteps; • 3, the animal crosses the pole with more than 50% foot slips; • 2, the animal walks a bit and then rotates around the pole; • 1, the animal rotates around the pole without crossing it; • 0, the animal falls off the pole. Cylinder Test for Asymmetric Use of Forelimb Use in Spontaneous Rearing

[2] = test system: SHR (spontaneous hypertensive) rats, stroke by MCA occlusion; assay: Cylinder test for asymmetric forelimb use after MCA occlusion; type: in vivo, rat; conditions: 0.03-10 mg/kg s.c. or p.o. from two days after MCAO for 2-8 weeks; saline control
From the text: as §1
The cylinder test (modified from Schallert and Tillerson (Innovative models of CNS disease: from molecule to therapy. Clifton, N.J., Humana, 1999) is used to quantify the forelimb use for rearing on the cylinder wall. The rats are monitored as they move freely in a 20-cm-wide clear glass cylinder. Contacts made by each forepaw with the cylinder wall while rearing are scored by a blinded observer. A total of 20 contacts are recorded for each animal, and the number of impaired (left), both, and non-impaired forelimb contacts as percentage of total contacts is calculated. Baseline for rats is achieved by measuring the contacts made by each forepaw before MCAO.

sigma-1 site = sigma-1 site (Homo sapiens, UniProt Q99720); conditions: (+) isomers of benzomorphan opiates; Hellewell and Bowen (1990); cited from earlier work
[3] = test system: rat primary neuronal cultures; conditions: Nakazawa et al. (1998); cited from earlier work
[4] = test system: cultured rat retinal neurons; conditions: Senda et al. (1998); cited from earlier work
sigma-1 receptor = sigma-1 receptor (Homo sapiens, UniProt Q99720); conditions: literature reports; cited from earlier work
[5] = test system: hypertensive rats exposed to permanent middle artery occlusion (MCAO), a model of ischemic stroke; assay: Morris water maze after permanent MCAO; type: in vivo, rat; conditions: for Latency to Find Hidden Platform, TRIAL 3 / Latency to Find Hidden Platform, TRIAL 4 / Latency to Find Hidden Platform, TRIAL 5 / Latency to Find Hidden Platform, TRIAL 1 / Latency to Find Hidden Platform, TRIAL 2 / Path Length to Find Hidden Platform, TRIAL 1 / Path Length to Find Hidden Platform, TRIAL 2 / Path Length to Find Hidden Platform, TRIAL 3 / Path Length to Find Hidden Platform, TRIAL 4 / Path Length to Find Hidden Platform, TRIAL 5: 14 days from day 2 after MCAO, tested day 35; for Latency to Find Hidden Platform, TRIAL 1 / Latency to Find Hidden Platform, TRIAL 2 / Path Length to Find Hidden Platform, TRIAL 1 / Path Length to Find Hidden Platform, TRIAL 2 / Path Length to Find Hidden Platform, TRIAL 3 / Path Length to Find Hidden Platform, TRIAL 4 / Path Length to Find Hidden Platform, TRIAL 5: value (SEM)
Protocol: The Morris water maze was used to assess functional recovery, in particular recovery in a cognitive skill, in hypertensive rats after exposure to permanent middle artery occlusion (MCAO), a model of ischemic stroke.
Forty three hypertensive rats were exposed to permanent middle artery occlusion (MCAO). Starting at two days after occlusion and continuing for 14 days, Siramesine was administered p.o. in doses of 0.3 mg/kg (14 rats) or 1.0 mg/kg (14 rats). In a control group (15 rats), vehicle only was administered. On day 35 after permanent MCAO, the rats were assessed for their performance in the Morris Water Maze Test.
In the test, the rats were given a series of 6 trials, 1 hour apart in a large dark-colored tank (200 cm in ) filled with clear water at a temperature of 22.0±1.5° C. A 12×12-cm submerged platform (2 mm below the water surface) was placed in the northwest quadrant of the pool. The release point was always the southern end of the pool. The rats were lowered into the pool facing the wall, and then released. Each rat was given a maximum of 90 seconds to find the submerged platform. […] After remaining on the platform for 20 seconds, the rat was removed and placed in a dry cage. One hour later, each rat was given a second trial, using the same release position and platform position, to measure the rat's retention of the platform location. The process was repeated a total of 5 times for each rat, each trial 1 hour apart. The swim paths of the rats were recorded with a computer tracking system and the latency and the length of swim path to find the hidden platform were analyzed.

sigma-2 receptor = sigma-2 receptor (Homo sapiens, UniProt Q5BJF2); conditions: Perregaard et al. (1995); cited from earlier work
[6] = hydrohalide salts, in particular the hydrochloride salt; WO 99/24436; cited from earlier work
[7] = test system: NMDA-induced toxicity and seizures; conditions: in vivo models; Pontecorvo et al. (1991); cited from earlier work
ischemia in gerbils = conditions: cited from earlier work
[8] = test system: NMDA-type of glutamate receptors; conditions: cited from earlier work

sigma-1 receptor, sequence (Q99720 whole entry): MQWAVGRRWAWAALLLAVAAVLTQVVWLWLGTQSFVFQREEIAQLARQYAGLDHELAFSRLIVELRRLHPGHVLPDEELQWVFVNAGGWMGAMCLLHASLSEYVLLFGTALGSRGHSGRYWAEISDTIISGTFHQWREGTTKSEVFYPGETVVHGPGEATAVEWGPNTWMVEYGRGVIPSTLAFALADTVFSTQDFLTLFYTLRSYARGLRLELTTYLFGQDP
sigma-1 site, sequence (Q99720 whole entry): as above
sigma-2 receptor, sequence (Q5BJF2 whole entry, species assumed): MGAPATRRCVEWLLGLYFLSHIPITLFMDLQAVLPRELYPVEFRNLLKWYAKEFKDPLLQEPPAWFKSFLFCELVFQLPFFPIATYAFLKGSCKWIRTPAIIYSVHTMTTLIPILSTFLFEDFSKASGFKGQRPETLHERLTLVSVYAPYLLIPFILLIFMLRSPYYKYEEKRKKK

In the case of `COc1ccc(CN2CCN(Cc3ccccc3)CC2)c(O)c1OC` [IX], the “performance in rotating pole test versus control” value [1] is reported as “perform better than the group 1 control animals” and the “performance in cylinder test versus control” value [2] is reported as “perform better than the group 1 control animals”.
In the case of `CC(C)=CCN1CCC2(C)c3cc(O)ccc3CC1C2C` (single isomer, unassigned; (+)) [(+)pentazocine], the “affinity for the sigma-1 site compared to the sigma-2 site” value (sigma-1 site) is given as “nearly two orders of magnitude higher affinity for the sigma-1 site”.
For `COc1ccc(CCN2CCN(CCCc3ccccc3)CC2)cc1OC` [SA4503, 1-(3,4-dimethoxyphenethyl)-4-(3-phenylpropyl) piperazine], the “suppression of hypoxia/hypoglycemia-induced neurotoxicity” value [3] is given as “significantly suppress hypoxia/hypoglycemia-induced neurotoxicity”, the “activity against glutamate neurotoxicity” value [4] is given as “active against glutamate neurotoxicity” and the “sigma-1 receptor functional activity” value (sigma-1 receptor) is given as “selective sigma-1 agonist”.
For `O=C(OCCN1CCOCC1)C1(c2ccccc2)CCCCC1` [III], the “performance in rotating pole test versus control” value [1] was “perform better than the group 1 control animals” and the “performance in cylinder test versus control” value [2] was “perform better than the group 1 control animals”.
In the case of `CCC(C/C=C/c1ccccc1)(c1ccccc1)N(C)CC1CC1` (stereo not drawn) [VI], the “performance in rotating pole test versus control” value [1] is reported as “perform better than the group 1 control animals” and the “performance in cylinder test versus control” value [2] is reported as “perform better than the group 1 control animals”.
In the case of `COc1cccc2c1CCC(=O)N2CCCN1CCN(c2cccc(Cl)c2)CC1` [VII], the “performance in rotating pole test versus control” value [1] is reported as “perform better than the group 1 control animals” and the “performance in cylinder test versus control” value [2] is reported as “perform better than the group 1 control animals”.
In the case of `Fc1ccc(-n2cc(CCCCN3CCC4(CC3)OCc3ccccc34)c3ccccc32)cc1` [Siramesine, 1′-[4-[1-(4-fluorophenyl)-1H-indol-3-yl]-1-butyl] spiro [isobenzofuran-1(3H),4′-piperidine]], the “Latency to Find Hidden Platform, TRIAL 3” value ([5]; 0.3 mg/kg p.o.) is reported as 47.0 s, the “Latency to Find Hidden Platform, TRIAL 4” value ([5]; 0.3 mg/kg p.o.) is reported as 33.1 s and the “Latency to Find Hidden Platform, TRIAL 5” value ([5]; 0.3 mg/kg p.o.) is reported as 15.66 s. For the same compound, the “Latency to Find Hidden Platform, TRIAL 1” value ([5]; 0.3 mg/kg p.o.) was 72.4 (7.3) SECONDS, the “Latency to Find Hidden Platform, TRIAL 2” value ([5]; 0.3 mg/kg p.o.) was 43.6 (7.9) SECONDS and the “Path Length to Find Hidden Platform, TRIAL 1” value ([5]; 0.3 mg/kg p.o.) was 14.5 (1.8) METERS. For the same compound, the “Path Length to Find Hidden Platform, TRIAL 2” value ([5]; 0.3 mg/kg p.o.) was 12.4 (2.3) METERS, the “Path Length to Find Hidden Platform, TRIAL 3” value ([5]; 0.3 mg/kg p.o.) was 14.4 (2.7) METERS and the “Path Length to Find Hidden Platform, TRIAL 4” value ([5]; 0.3 mg/kg p.o.) was 10.4 (2.4) METERS. The “Path Length to Find Hidden Platform, TRIAL 5” value ([5]; 0.3 mg/kg p.o.) was 4.3 (0.6) METERS, the “Latency to Find Hidden Platform, TRIAL 3” value ([5]; 1.0 mg/kg p.o.) was 59.99 s and the “Latency to Find Hidden Platform, TRIAL 4” value ([5]; 1.0 mg/kg p.o.) was 34.3 s. For the same compound, the “Latency to Find Hidden Platform, TRIAL 5” value ([5]; 1.0 mg/kg p.o.) was 19.8 s, the “Latency to Find Hidden Platform, TRIAL 1” value ([5]; 1.0 mg/kg p.o.) was 62.4 (7.7) SECONDS and the “Latency to Find Hidden Platform, TRIAL 2” value ([5]; 1.0 mg/kg p.o.) was 62.2 (8.5) SECONDS. For the same compound, the “Path Length to Find Hidden Platform, TRIAL 1” value ([5]; 1.0 mg/kg p.o.) was 11.1 (1.4) METERS, the “Path Length to Find Hidden Platform, TRIAL 2” value ([5]; 1.0 mg/kg p.o.) was 16.2 (2.2) METERS and the “Path Length to Find Hidden Platform, TRIAL 3” value ([5]; 1.0 mg/kg p.o.) was 16.65 (2.2) METERS. For the same compound, the “Path Length to Find Hidden Platform, TRIAL 4” value ([5]; 1.0 mg/kg p.o.) was 9.7 (1.9) METERS, the “Path Length to Find Hidden Platform, TRIAL 5” value ([5]; 1.0 mg/kg p.o.) was 5.29 (1.5) METERS and the “functional recovery, in particular recovery in a cognitive skill” value ([5]; administered daily to rats from 2 days after the stroke for 14 days) was “facilitates functional recovery”. The “performance in rotating pole test versus control” value [1] was “perform better than the group 1 control animals”, the “performance in cylinder test versus control” value [2] was “perform better than the group 1 control animals” and the “sigma-2 receptor functional activity” value (sigma-2 receptor) was “selective sigma-2 agonist”. For the same compound, the bioavailability [6] was “good bioavailability” and the “sigma-1 receptor functional activity” value (sigma-1 receptor) was “displays activity towards the sigma 1 receptor”.
For `COc1ccc(CCN2CCN(CCCc3ccccc3)CC2)cc1OC` [IV], the “performance in rotating pole test versus control” value [1] was “perform better than the group 1 control animals” and the “performance in cylinder test versus control” value [2] was “perform better than the group 1 control animals”.
For `COCCCC/C(=N\OCCN)c1ccc(C(F)(F)F)cc1` [compound I], the “performance in rotating pole test versus control” value [1] was “perform better than the group 1 control animals” and the “performance in cylinder test versus control” value [2] was “perform better than the group 1 control animals”.
In the case of `O=C(CCCN1CCC(O)(c2ccc(Cl)cc2)CC1)c1ccc(F)cc1` [haloperidol], the “protective effects against NMDA-induced toxicity and seizures” value (“protective effects” for short) [7] is given as “protective effects against NMDA-induced toxicity and seizures”.
For `O=C(NC1CCN(Cc2ccccc2)CC1)c1ccc(I)cc1` [II], the “performance in rotating pole test versus control” value [1] was “perform better than the group 1 control animals” and the “performance in cylinder test versus control” value [2] was “perform better than the group 1 control animals”.
For `CCN(CC)CCOC(=O)C1(c2ccccc2)CCCC1` [caramiphen], the “protective effects” value [7] is listed as “protective effects against NMDA-induced toxicity and seizures”.
In the case of `OCCN1CCN(CCCN2c3ccccc3C=Cc3ccccc32)CC1` [opipramol], the protection against ischemia (ischemia in gerbils) is listed as “protect against ischemia in gerbils” and the “modulation of NMDA-type glutamate receptors” value [8] is listed as “modulate the NMDA-type of glutamate receptors”.
In the case of `OC(CCCN1CCN(c2ncc(F)cn2)CC1)c1ccc(F)cc1` (stereo not drawn) [BMY-14802], the “protective effects” value [7] is listed as “protective effects against NMDA-induced toxicity and seizures”.
For `CN(CCc1ccc(Cl)c(Cl)c1)C1CCCCC1N1CCCC1` (stereo not drawn) [VIII], the “performance in rotating pole test versus control” value [1] was “perform better than the group 1 control animals” and the “performance in cylinder test versus control” value [2] was “perform better than the group 1 control animals”.
